# Experimental data from ChEMBL document CHEMBL1201862, “PubChem BioAssay data set” (2004).
# Calls of active or inactive are those of the source. Cut-off read from the data, not from the text of the source, for most assays here: actives have a measured EC50 and inactives only a lower limit.
# Experiments:
# BJ [1] = experiment: growth inhibition of engineered Ras-driven BJ cells – cell-based, alamar blue fluorescence, cherrypicked samples, dose response (AID 2631); assay type: functional; conditions: Homo sapiens;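 note: confirmatory dose-response assay in RAS-dependent BJ fibroblasts engineered with TERT, LT and ST, with cytotoxicity read by fluorescence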
# BJ [2] = experiment: cells; assay type: functional, cell-based; conditions: Homo sapiens
# [3] = biological target: T1, Zinc finger protein mex-5 (Caenorhabditis elegans, UniProt Q9XUB2); experiment: potency of MEX-5 RNA-binding blockers – biochemical, C. elegans, fluorescence polarization, dose response (AID 1960)
# T1 sequence (Q9XUB2 whole entry): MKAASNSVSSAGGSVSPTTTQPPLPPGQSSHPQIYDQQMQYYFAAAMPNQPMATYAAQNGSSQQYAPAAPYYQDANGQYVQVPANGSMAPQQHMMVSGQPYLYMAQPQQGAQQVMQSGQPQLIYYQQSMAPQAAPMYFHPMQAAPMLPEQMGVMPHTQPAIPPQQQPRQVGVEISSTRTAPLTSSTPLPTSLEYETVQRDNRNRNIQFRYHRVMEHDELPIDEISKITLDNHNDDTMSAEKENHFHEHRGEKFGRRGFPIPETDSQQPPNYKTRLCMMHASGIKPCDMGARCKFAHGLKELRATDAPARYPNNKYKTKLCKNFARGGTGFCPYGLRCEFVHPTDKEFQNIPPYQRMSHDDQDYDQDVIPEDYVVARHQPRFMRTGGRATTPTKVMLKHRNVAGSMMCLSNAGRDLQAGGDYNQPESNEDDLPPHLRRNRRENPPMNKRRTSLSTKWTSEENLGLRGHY
# [4] = DRD fibroblast viability loss – cell-based, non-viral oncogenic, luminescence, dose response (AID 1934); assay type: functional; conditions: Homo sapiens
# BJ [5] = experiment: BJ-TERT-LT-ST fibroblast viability loss – cell-based, RAS-independent, luminescence, dose response (AID 1935); assay type: functional; conditions: Homo sapiens;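 note: BJ fibroblasts immortalized with TERT plus LT and ST oncogenes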
# BJ [6] = experiment: BJ-TERT fibroblast viability loss – cell-based, RAS-independent, luminescence, dose response (AID 1933); assay type: functional; conditions: Homo sapiens
# [7] = biological target: T2, RNA-binding protein pos-1 (Caenorhabditis elegans, UniProt G5EF15); experiment: disruptors of C. elegans POS-1 RNA interaction – biochemical, fluorescence polarization, dose response (AID 1964);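 note: purified POS-1 fused to maltose binding protein made in E. coli; potency of compounds blocking POS-1 binding to fluorescent RNA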
# T2 sequence (G5EF15 whole entry): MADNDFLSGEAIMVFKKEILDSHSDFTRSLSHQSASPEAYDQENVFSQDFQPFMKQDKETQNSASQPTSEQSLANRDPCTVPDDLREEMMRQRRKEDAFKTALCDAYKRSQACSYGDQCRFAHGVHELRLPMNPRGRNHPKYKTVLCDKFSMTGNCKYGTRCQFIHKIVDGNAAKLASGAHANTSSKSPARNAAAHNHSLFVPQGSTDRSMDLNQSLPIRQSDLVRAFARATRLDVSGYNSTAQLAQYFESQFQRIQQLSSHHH
# [8] = biological target: T3, Endoribonuclease toxin MazF (Escherichia coli K-12, UniProt P0AE70); experiment: activation of MazEF endoribonuclease cleavage – biochemical, fluorescence, single-stranded RNA substrate, uHTS hits, dose response (AID 588481); assay type: functional
# T3 sequence (P0AE70 whole entry): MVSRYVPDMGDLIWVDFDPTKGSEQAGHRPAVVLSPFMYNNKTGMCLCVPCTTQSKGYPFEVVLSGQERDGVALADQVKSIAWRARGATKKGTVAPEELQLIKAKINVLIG
# [9] = biological target: T3, Endoribonuclease toxin MazF; experiment: substrate-only fluorescence increase artefacts – biochemical, single-stranded RNase substrate, counter-screen for MazEF activator project, dose response (AID 588502); assay type: functional
# [10] = biological target: Photoreceptor-specific nuclear receptor (Homo sapiens, UniProt Q9Y5X4); assay type: functional, cell-based;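 note: CHO-S cells with Gal4-NCOR and VP16-NR2E3 two-hybrid luciferase reporter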
# [11] = A Cell Based Secondary Assay To Explore Cytotoxicity of Compounds that Sensitize Mycobacterium Tuberculosis to Beta-Lactam Antibiotics.; assay type: functional
# Melanocortin receptor 4 = Melanocortin receptor 4 (Homo sapiens, UniProt P32245); assay type: functional, cell-based;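 note: Cell-based assay with luminescence read-out, confirmatory dose-response testing for agonist activity of biased ligands at MC4R; human U2OS cells with tagged receptor and beta-arrestin; potency of agonists that increase receptor coupling to beta-arrestin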
# cells [12] = assay type: functional, cell-based
# [13] = luciferase reporter signal suppression in cells – H4 neuroglioma cells, luminescence, dose response (AID 1990); assay type: functional, cell-based
# [14] = alpha-synuclein stem-loop luciferase translation blockers – H4 neuroglioma cells, luminescence, confirmation (AID 1988); assay type: functional, cell-based
# cells [15] = assay type: functional, cell-based; remark: listed apart in the source
# [16] = Luminescence Cell-Based Dose Response HTS to Identify Inhibitors of 5'UTR Stem-Loop Driven Prion Protein mRNA Translation in H4 Neuroglioblastoma Cells. [Related pubchem assays: 1827 (Project Summary), 1813 (Primary HTS)]; assay type: functional
# INS1 = experiment: INS-1E survival protection against cytokine death – cell-based, luminescence, retest, dose response (AID 449756); assay type: functional; conditions: Rattus norvegicus;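 note: cell death triggered by IL-1 beta plus TNF-alpha plus IFN-gamma mixture; protective hits raise ATP signal compared with cytokine alone wells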
# Protein Wnt-3a = Protein Wnt-3a (Mus musculus, UniProt P27467); experiment: antagonism of Wnt3a pathway luciferase reporter – Wnt-LIGHT cells, luminescence, selectivity assay for Gli-SUFU antagonist project, dose response (AID 651570); assay type: functional; conditions: read-out: IC50_Mean;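 note: Wnt-LIGHT reporter cells stimulated with conditioned medium from Wnt3a-producing cells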
# Sequence of Protein Wnt-3a (P27467 whole entry): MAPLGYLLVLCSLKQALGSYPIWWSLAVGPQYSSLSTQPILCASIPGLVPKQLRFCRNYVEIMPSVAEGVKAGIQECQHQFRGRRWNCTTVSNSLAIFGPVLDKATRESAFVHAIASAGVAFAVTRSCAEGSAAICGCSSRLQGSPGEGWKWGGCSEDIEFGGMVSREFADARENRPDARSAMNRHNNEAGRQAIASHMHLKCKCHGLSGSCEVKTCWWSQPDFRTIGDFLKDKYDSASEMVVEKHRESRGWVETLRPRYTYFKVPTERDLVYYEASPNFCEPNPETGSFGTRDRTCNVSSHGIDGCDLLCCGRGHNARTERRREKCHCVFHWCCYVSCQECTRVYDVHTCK
# Sequence of Photoreceptor-specific nuclear receptor (Q9Y5X4 whole entry, the tested form may be a part): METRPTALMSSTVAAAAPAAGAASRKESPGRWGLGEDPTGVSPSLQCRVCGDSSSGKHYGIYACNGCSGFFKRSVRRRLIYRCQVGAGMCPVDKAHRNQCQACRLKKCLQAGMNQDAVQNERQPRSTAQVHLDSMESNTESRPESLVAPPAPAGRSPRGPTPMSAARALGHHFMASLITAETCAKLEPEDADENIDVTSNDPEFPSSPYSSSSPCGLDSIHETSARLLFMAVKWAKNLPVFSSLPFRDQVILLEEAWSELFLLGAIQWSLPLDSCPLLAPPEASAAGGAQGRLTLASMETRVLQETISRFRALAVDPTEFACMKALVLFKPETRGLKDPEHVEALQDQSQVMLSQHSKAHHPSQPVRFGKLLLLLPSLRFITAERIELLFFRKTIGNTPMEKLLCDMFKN
# Sequence of Melanocortin receptor 4 (P32245 whole entry): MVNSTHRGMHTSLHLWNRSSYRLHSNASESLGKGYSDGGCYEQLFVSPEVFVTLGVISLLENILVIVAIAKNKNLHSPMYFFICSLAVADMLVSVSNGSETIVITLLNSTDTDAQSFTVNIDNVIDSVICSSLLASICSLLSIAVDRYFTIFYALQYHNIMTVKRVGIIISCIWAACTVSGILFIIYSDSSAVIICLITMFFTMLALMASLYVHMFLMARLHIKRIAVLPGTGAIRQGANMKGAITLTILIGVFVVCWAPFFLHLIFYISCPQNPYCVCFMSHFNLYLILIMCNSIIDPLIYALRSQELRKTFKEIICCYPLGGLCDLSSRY
smiles,measurement,setting,value
COc1ccc(N2C(=O)/C(=C/c3ccc(C)o3)C(=O)NC2=S)cc1,EC50,BJ [1],> 133 µM (inactive)
same,EC50,BJ [2],17 µM (active)
same,EC50,[3],> 300 µM (not active)
same,EC50,[4],15.9 µM (active)
same,EC50,BJ [5],> 75 µM (inconclusive)
same,EC50,BJ [6],> 150 µM (not active)
same,EC50,[7],> 300 µM (not active)
COc1ccc(NC(=O)CN(C)S(=O)(=O)c2ccccc2)c([N+](=O)[O-])c1,EC50,[8],> 99 µM (inactive)
same,EC50,[9],> 99 µM (inactive)
COC(CNC(=O)CSCc1nc(-c2ccc(SC)cc2)oc1C)OC,IC50,[10],2.23 µM (active)
C=C(C(=O)c1ccccc1)C(NC(C)(C)C)c1ccccc1 (stereo not given),IC50,[10],2.01 µM (active)
Clc1ccc(/C=N/NC2=Nc3cccc4cccc2c34)cc1,CC50,[11],21.4 µM (active)
same,EC50,Melanocortin receptor 4,> 89.1 µM (inactive)
C/C(=N\Nc1nc2ccccc2[nH]1)c1ccccn1,EC50,BJ [1],< 0.104 µM (active)
same,EC50,cells [12],6.03 µM (active)
same,EC50,BJ [2],4.7 µM (active)
same,EC50,[13],0.306 µM (active)
same,EC50,[14],0.107 µM (active)
same,EC50,[4],2.24 µM (active)
same,EC50,BJ [5],1.38 µM (inconclusive)
same,EC50,cells [15],13.8 µM (active)
same,EC50,[16],0.154 µM (active)
same,AC50,INS1,< 0.195 µM (active)
same,EC50,BJ [6],0.672 µM (active)
Brc1ccc(-c2cn3c([n+]2-c2ccccc2)SCC3)cc1,IC50,Protein Wnt-3a,17.2 µM (active)
